From patent US20260022142A1, “MACROCYCLIC IMMUNOMODULATORS” (Bristol-Myers Squibb Company, priority 2022, published 2026)
pIC50: −log10 of the molar value. Bridge positions count the residues as written; N and C are the ends. Square brackets hold non-standard residues; d marks the D form. Peptide text beside a SMILES is read from it. * marks the point of attachment. ξ: configuration not given here. Phe(4-COOH) = N[C@@H](Cc1ccc(C(=O)O)cc1)C(=O)O; Bip = N[C@@H](Cc1ccc(-c2ccccc2)cc1)C(=O)O; Nle(6-COOH) = N[C@@H](CCCCC(=O)O)C(=O)O; Phe(3-Me) = Cc1cccc(C[C@H](N)C(=O)O)c1; Cha = N[C@@H](CC1CCCCC1)C(=O)O; Cit = NC(=O)NCCC[C@H](N)C(=O)O; Thr(3ξ) = CC(O)[C@H](N)C(=O)O; Carboxymethyl = O=C(O)C*; Orn = NCCC[C@H](N)C(=O)O; Aun = NCCCCCCCCCCC(=O)O; Dab = NCC[C@H](N)C(=O)O

Target: T1, PD-1/PD-L1 interaction (PE-labeled human PD-L1-Ig binding to Jurkat cell line over-expressing human PD-1) (Homo sapiens, UniProt Q15116)
T1 construct: expressed in transfected cells; host or cells: Jurkat
Experiment: Jurkat-PD-1 Cell Binding High-Content Screening Assay (CBA)
Format: cell-based
Conditions: Jurkat cell line over-expressing human PD-1; PE-labeled PD-L1-Ig 20 nM final; read-out: Jurkat hPD1-PDL1 IC50
Method in brief: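 Binding of fluorescent PD-L1-Ig (20 nM final) to Jurkat-PD-1 cells was measured by automated imaging after 1 h, following a 2 h compound pre-treatment at 37° C.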

T1 sequence (Q15116 25-288): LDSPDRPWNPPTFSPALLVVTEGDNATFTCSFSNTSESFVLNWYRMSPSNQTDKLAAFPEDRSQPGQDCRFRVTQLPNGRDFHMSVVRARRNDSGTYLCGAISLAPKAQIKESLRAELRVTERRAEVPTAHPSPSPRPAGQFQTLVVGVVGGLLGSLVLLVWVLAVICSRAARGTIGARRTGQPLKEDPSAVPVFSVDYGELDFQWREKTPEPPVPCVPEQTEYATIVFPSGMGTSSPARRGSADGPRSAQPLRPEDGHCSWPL

Row | Structure (SMILES) | pIC50
1 | Cc1cccc(C[C@@H]2NC(=O)[C@H](CC(=O)O)NC(=O)[C@H](Cc3ccc(OCC(=O)O)cc3)NC(=O)[C@H](CC(N)=O)NC(=O)CSC[C@@H](C(=O)N[C@@H](CCN)C(=O)NCCCCCCCCCCC(=O)O)NC(=O)[C@H](CCC(=O)O)NC(=O)[C@H](C(C)C)NC(=O)[C@H](CC3CCCCC3)NC(=O)[C@H](CCN)NC(=O)[C@@H](CC(C)C)NC(=O)[C@H](CCCN)NC(=O)[C@H](Cc3ccc(O)cc3)NC(=O)[C@H](Cc3ccc(-c4ccccc4)cc3)NC(=O)[C@H](C(C)C)NC2=O)c1 [Compound 3379] ({CH2CO}-NY(Carboxymethyl)D[Phe(3-Me)]V[Bip]Y[Orn][dL][Dab][Cha]VEC[Dab][Aun]-OH; thioether N-14) | 8.02
2 | Cc1cccc(C[C@@H]2NC(=O)[C@H](CC(=O)O)NC(=O)[C@H](Cc3ccc(OCC(=O)O)cc3)NC(=O)[C@H](CCCNC(=N)N)NC(=O)CSC[C@@H](C(=O)N[C@@H](CCN)C(=O)NCCCCCCCCCCC(=O)O)NC(=O)[C@H](CCC(=O)O)NC(=O)[C@H](C(C)C)NC(=O)[C@H](CC3CCCCC3)NC(=O)[C@H](CCN)NC(=O)[C@@H](CC(C)C)NC(=O)[C@H](CCCN)NC(=O)[C@H](Cc3ccc(O)cc3)NC(=O)[C@H](Cc3ccc(-c4ccccc4)cc3)NC(=O)[C@H](Cc3ccc(O)cc3)NC2=O)c1 [Compound 3381] ({CH2CO}-RY(Carboxymethyl)D[Phe(3-Me)]Y[Bip]Y[Orn][dL][Dab][Cha]VEC[Dab][Aun]-OH; thioether N-14) | 8.05
3 | Cc1cccc(C[C@@H]2NC(=O)[C@H](CC(=O)O)NC(=O)[C@H](Cc3ccc(OCC(=O)O)cc3)NC(=O)[C@H](CCCNC(=N)N)NC(=O)CSC[C@@H](C(=O)N[C@@H](CCN)C(=O)NCCCCCCCCCCC(=O)O)NC(=O)[C@H](CCC(N)=O)NC(=O)[C@H](C(C)C)NC(=O)[C@H](CC3CCCCC3)NC(=O)[C@H](CCN)NC(=O)[C@@H](CC(C)C)NC(=O)[C@H](CCCN)NC(=O)[C@H](Cc3ccc(O)cc3)NC(=O)[C@H](Cc3ccc(-c4ccccc4)cc3)NC(=O)[C@H](Cc3ccc(O)cc3)NC2=O)c1 [Compound 3382] ({CH2CO}-RY(Carboxymethyl)D[Phe(3-Me)]Y[Bip]Y[Orn][dL][Dab][Cha]VQC[Dab][Aun]-OH; thioether N-14) | 7.97
4 | Cc1cccc(C[C@@H]2NC(=O)[C@H](CC(=O)O)NC(=O)[C@H](Cc3ccc(OCC(=O)O)cc3)NC(=O)[C@H](CCCNC(=N)N)NC(=O)CSC[C@@H](C(=O)N[C@@H](CCN)C(=O)NCCCCCCCCCCC(=O)O)NC(=O)[C@H](CCC(=O)O)NC(=O)[C@H](C(C)C)NC(=O)[C@H](CC3CCCCC3)NC(=O)[C@H](CCN)NC(=O)[C@@H](CC(C)C)NC(=O)[C@H](CCCN)NC(=O)[C@H](CCC(N)=O)NC(=O)[C@H](Cc3ccc(-c4ccccc4)cc3)NC(=O)[C@H](C(C)C)NC2=O)c1 [Compound 3384] ({CH2CO}-RY(Carboxymethyl)D[Phe(3-Me)]V[Bip]Q[Orn][dL][Dab][Cha]VEC[Dab][Aun]-OH; thioether N-14) | 8.04
5 | CSCC[C@@H]1NC(=O)[C@H](Cc2ccc(-c3ccccc3)cc2)NC(=O)[C@H](C(C)C)NC(=O)[C@H](Cc2cccc(C)c2)NC(=O)[C@H](CC(=O)O)NC(=O)[C@H](Cc2ccc(OCC(=O)O)cc2)NC(=O)[C@H](CCCNC(=N)N)NC(=O)CSC[C@@H](C(=O)N[C@@H](CCN)C(=O)NCCCCCCCCCCC(=O)O)NC(=O)[C@H](CCC(N)=O)NC(=O)[C@H](C(C)C)NC(=O)[C@H](CC2CCCCC2)NC(=O)[C@H](CCN)NC(=O)[C@@H](CC(C)C)NC(=O)[C@H](CCCN)NC1=O [Compound 3385] ({CH2CO}-RY(Carboxymethyl)D[Phe(3-Me)]V[Bip]M[Orn][dL][Dab][Cha]VQC[Dab][Aun]-OH; thioether N-14) | 7.78
6 | CC(=O)NCCCC[C@@H]1NC(=O)[C@H](Cc2ccc(-c3ccccc3)cc2)NC(=O)[C@H](Cc2ccc(O)cc2)NC(=O)[C@H](Cc2cccc(C)c2)NC(=O)[C@H](CC(=O)O)NC(=O)[C@H](Cc2ccc(OCC(=O)O)cc2)NC(=O)[C@H](CCCNC(=N)N)NC(=O)CSC[C@@H](C(=O)N[C@@H](CCN)C(=O)NCCCCCCCCCCC(=O)O)NC(=O)[C@H](CCCNC(N)=O)NC(=O)[C@H](C(C)C)NC(=O)[C@H](CC2CCCCC2)NC(=O)[C@H](CCN)NC(=O)[C@@H](CC(C)C)NC(=O)[C@H](CCCN)NC1=O [Compound 3386] ({CH2CO}-RY(Carboxymethyl)D[Phe(3-Me)]Y[Bip]K(Ac)[Orn][dL][Dab][Cha]V[Cit]C[Dab][Aun]-OH; thioether N-14) | 8.36
7 | Cc1cccc(C[C@@H]2NC(=O)[C@H](CC(=O)O)NC(=O)[C@H](Cc3ccc(OCC(=O)O)cc3)NC(=O)[C@H](CCCNC(=N)N)NC(=O)CSC[C@@H](C(=O)N[C@@H](CCN)C(=O)NCCCCCCCCCCC(=O)O)NC(=O)[C@H](CCCNC(N)=O)NC(=O)[C@H](C(C)C)NC(=O)[C@H](CC3CCCCC3)NC(=O)[C@H](CCN)NC(=O)[C@@H](CC(C)C)NC(=O)[C@H](CCCN)NC(=O)[C@H](CCCCC(=O)O)NC(=O)[C@H](Cc3ccc(-c4ccccc4)cc3)NC(=O)[C@H](C(C)C)NC2=O)c1 [Compound 3390] ({CH2CO}-RY(Carboxymethyl)D[Phe(3-Me)]V[Bip][Nle(6-COOH)][Orn][dL][Dab][Cha]V[Cit]C[Dab][Aun]-OH; thioether N-14) | 8.05
8 | CC(=O)NCCCC[C@@H]1NC(=O)[C@H](C(C)C)NC(=O)[C@H](CC2CCCCC2)NC(=O)[C@H](CCN)NC(=O)[C@@H](CC(C)C)NC(=O)[C@H](CCCN)NC(=O)[C@H](Cc2ccc(O)cc2)NC(=O)[C@H](Cc2ccc(-c3ccccc3)cc2)NC(=O)[C@H](C(C)C)NC(=O)[C@H](Cc2c[nH]c3ccccc23)NC(=O)[C@H](CC(=O)O)NC(=O)[C@H](Cc2ccc(OCC(=O)O)cc2)NC(=O)[C@H](CCCNC(=N)N)NC(=O)CSC[C@@H](C(=O)N[C@@H](CCN)C(=O)NCCCCCCCCCCC(=O)O)NC1=O [Compound 3391] ({CH2CO}-RY(Carboxymethyl)DWV[Bip]Y[Orn][dL][Dab][Cha]VK(Ac)C[Dab][Aun]-OH; thioether N-14) | 8.06
9 | CC(C)C[C@H]1NC(=O)[C@H](CCCN)NC(=O)[C@H](Cc2ccc(O)cc2)NC(=O)[C@H](Cc2ccc(-c3ccccc3)cc2)NC(=O)[C@H](C(C)C)NC(=O)[C@H](Cc2c[nH]c3ccccc23)NC(=O)[C@H](CC(=O)O)NC(=O)[C@H](Cc2ccc(C(=O)O)cc2)NC(=O)[C@H](CC(N)=O)NC(=O)CSC[C@@H](C(=O)N[C@@H](CCN)C(=O)NCCCCCCCCCCC(=O)O)NC(=O)[C@H](CCC(=O)O)NC(=O)[C@H](C(C)C)NC(=O)[C@H](CC2CCCCC2)NC(=O)[C@H](CCN)NC1=O [Compound 3392] ({CH2CO}-N[Phe(4-COOH)]DWV[Bip]Y[Orn][dL][Dab][Cha]VEC[Dab][Aun]-OH; thioether N-14) | 7.88

Further lines, results first:

Row | pIC50 | Structure (SMILES)
10 | 7.74 | Cc1cccc(C[C@@H]2NC(=O)[C@H](CC(=O)O)NC(=O)[C@H](Cc3ccc(OCC(=O)O)cc3)NC(=O)[C@H](CC(N)=O)NC(=O)CSC[C@@H](C(=O)N[C@@H](CCN)C(=O)NCCCCCCCCCCC(=O)O)NC(=O)[C@H](CCCNC(N)=O)NC(=O)[C@H](C(C)C)NC(=O)[C@H](CC3CCCCC3)NC(=O)[C@H](CCN)NC(=O)[C@@H](CC(C)C)NC(=O)[C@H](CCCN)NC(=O)[C@H](Cc3ccc(O)cc3)NC(=O)[C@H](Cc3ccc(-c4ccccc4)cc3)NC(=O)[C@H](C(C)C)NC2=O)c1 [Compound 3378] ({CH2CO}-NY(Carboxymethyl)D[Phe(3-Me)]V[Bip]Y[Orn][dL][Dab][Cha]V[Cit]C[Dab][Aun]-OH; thioether N-14)
11 | 7.69 | Cc1cccc(C[C@@H]2NC(=O)[C@H](CC(=O)O)NC(=O)[C@H](Cc3ccc(OCC(=O)O)cc3)NC(=O)[C@H](CCCNC(=N)N)NC(=O)CSC[C@@H](C(=O)N[C@@H](CCN)C(=O)NCCCCCCCCCCC(=O)O)NC(=O)[C@H](CCC(N)=O)NC(=O)[C@H](C(C)C)NC(=O)[C@H](CC3CCCCC3)NC(=O)[C@H](CCN)NC(=O)[C@@H](CC(C)C)NC(=O)[C@H](CCCN)NC(=O)[C@H](Cc3ccc(O)cc3)NC(=O)[C@H](Cc3ccc(-c4ccccc4)cc3)NC(=O)[C@H](CC(C)C)NC2=O)c1 [Compound 3380] ({CH2CO}-RY(Carboxymethyl)D[Phe(3-Me)]L[Bip]Y[Orn][dL][Dab][Cha]VQC[Dab][Aun]-OH; thioether N-14)
12 | 8.09 | Cc1cccc(C[C@@H]2NC(=O)[C@H](CC(=O)O)NC(=O)[C@H](Cc3ccc(OCC(=O)O)cc3)NC(=O)[C@H](CCCNC(=N)N)NC(=O)CSC[C@@H](C(=O)N[C@@H](CCN)C(=O)NCCCCCCCCCCC(=O)O)NC(=O)[C@H](CCCNC(N)=O)NC(=O)[C@H](C(C)C)NC(=O)[C@H](CC3CCCCC3)NC(=O)[C@H](CCN)NC(=O)[C@@H](CC(C)C)NC(=O)[C@H](CCCN)NC(=O)[C@H](Cc3ccc(OCC(=O)O)cc3)NC(=O)[C@H](Cc3ccc(-c4ccccc4)cc3)NC(=O)[C@H](C(C)C)NC2=O)c1 [Compound 3383] ({CH2CO}-RY(Carboxymethyl)D[Phe(3-Me)]V[Bip]Y(Carboxymethyl)[Orn][dL][Dab][Cha]V[Cit]C[Dab][Aun]-OH; thioether N-14)
13 | 7.69 | Cc1cccc(C[C@@H]2NC(=O)[C@H](CC(=O)O)NC(=O)[C@H](Cc3ccc(OCC(=O)O)cc3)NC(=O)[C@H](CCCNC(=N)N)NC(=O)CSC[C@@H](C(=O)N[C@@H](CCN)C(=O)NCCCCCCCCCCC(=O)O)NC(=O)[C@H](C(C)O)NC(=O)[C@H](C(C)C)NC(=O)[C@H](CC3CCCCC3)NC(=O)[C@H](CCN)NC(=O)[C@@H](CC(C)C)NC(=O)[C@H](CCCN)NC(=O)[C@H](Cc3ccc(OCC(=O)O)cc3)NC(=O)[C@H](Cc3ccc(-c4ccccc4)cc3)NC(=O)[C@H](CC(C)C)NC2=O)c1 (stereo partly drawn) [Compound 3387] ({CH2CO}-RY(Carboxymethyl)D[Phe(3-Me)]L[Bip]Y(Carboxymethyl)[Orn][dL][Dab][Cha]V[Thr(3ξ)]C[Dab][Aun]-OH; thioether N-14)
